Legend:
pneumococcal meningitis = pneumococcal meningitis model in rabbits, intravenous GXM; assay type: in vivo
healthy rabbits = test: Animal toxicity of intravenous GXM in healthy rabbits; assay type: in vivo; details: intravenous administration, doses ranging from 0.5 to 50 mg
From the text: In experiments, it was investigated whether GXM is toxic in healthy animals.

[1] = system: neutrophil migration (chemotaxis) towards IL-8; details: in vitro, GXM added directly to the leukocytes; cited from earlier work
neutrophils = details: cited from earlier work
[2] = biological target: CD18 (β subunit of LFA-1) (Homo sapiens, UniProt P05107); details: cited from earlier work
CD18 (β subunit of LFA-1), sequence (P05107 23-769): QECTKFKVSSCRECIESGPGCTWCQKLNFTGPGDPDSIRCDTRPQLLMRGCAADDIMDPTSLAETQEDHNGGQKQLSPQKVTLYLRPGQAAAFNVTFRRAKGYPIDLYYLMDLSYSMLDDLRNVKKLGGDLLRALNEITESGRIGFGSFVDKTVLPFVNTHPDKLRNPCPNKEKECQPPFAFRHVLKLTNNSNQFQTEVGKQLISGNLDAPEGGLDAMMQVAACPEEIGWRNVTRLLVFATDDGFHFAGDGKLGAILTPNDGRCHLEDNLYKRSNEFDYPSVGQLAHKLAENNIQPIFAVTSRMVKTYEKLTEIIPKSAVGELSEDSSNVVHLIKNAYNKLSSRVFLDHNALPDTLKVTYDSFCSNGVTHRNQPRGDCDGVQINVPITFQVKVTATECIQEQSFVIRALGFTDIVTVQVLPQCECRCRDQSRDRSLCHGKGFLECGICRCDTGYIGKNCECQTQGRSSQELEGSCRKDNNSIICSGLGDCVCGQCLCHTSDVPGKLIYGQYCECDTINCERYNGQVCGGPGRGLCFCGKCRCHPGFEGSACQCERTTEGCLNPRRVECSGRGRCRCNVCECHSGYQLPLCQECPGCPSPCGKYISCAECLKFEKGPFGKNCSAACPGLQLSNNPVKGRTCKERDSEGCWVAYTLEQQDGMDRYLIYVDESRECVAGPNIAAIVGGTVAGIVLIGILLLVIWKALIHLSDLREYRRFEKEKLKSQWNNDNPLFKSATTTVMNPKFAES

neutrophil L-selectin = details: cited from earlier work
[3] = purified form; cited from earlier work
[4] = pneumococcal meningitis rabbit model, i.v. administration
[5] = rabbits, intravenous administration, in comparison to control rabbits

Substance: glucuronoxylomannan [GXM]
- toxicity and tolerability in the pneumococcal meningitis rabbit model (pneumococcal meningitis; i.v. administration): non-toxic and well tolerated
- GXM in CSF (pneumococcal meningitis; [4]): detectable
- brain toxicity (pneumococcal meningitis; [4]): No demonstrable brain toxicity
- TNF-α levels in the CSF (pneumococcal meningitis; [5]): reduces TNF-α levels in the CSF
- entry of leukocytes (PMN) into the CSF and brain (pneumococcal meningitis; [5]): delays entry of leukocytes (PMN) into the CSF and brain
- protection of the brain against damage (pneumococcal meningitis; [5]): protects the brains of these rabbits against damage
- tolerability in healthy rabbits (healthy rabbits): tolerated
- interference with neutrophil migration (chemotaxis) towards IL-8 [1]: interferes with neutrophil migration (chemotaxis) towards IL-8
- attraction of neutrophils (neutrophils): attract neutrophils itself
- binding to CD18 [2]: can bind to CD18
- shedding of neutrophil L-selectin (neutrophil L-selectin): can induce shedding of neutrophil L-selectin
- immunogenicity [3]: poorly immunogenic
